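Cultured in 96-well plates, cells were exposed to test compound for 48 hours across five concentrations. GI50: concentration for 50% inhibition of growth. TGI: total growth inhibition.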
Columns and labels:
Test in all cases: DTP human tumour cell line panel, 48 h
[1] = system: MCF7 breast
[2] = system: LOX IMVI melanoma
[3] = system: SK-MEL-28 melanoma
[4] = system: NCI-H226 lung
[5] = system: HOP-62 NSCLC
[6] = system: NCI/ADR-RES ovarian
[7] = system: SW-620 colon
[8] = system: SK-MEL-5 melanoma
[9] = system: HCT-116 colon
[10] = system: 786-0 renal
[11] = system: IGROV1 ovarian
[12] = system: ACHN renal
[13] = system: SN12C renal
[14] = system: MDA-MB-231 breast
[15] = system: OVCAR-3 ovarian
[16] = system: UACC-62 melanoma
[17] = system: COLO 205 colon
[18] = system: SNB-75 CNS
[19] = system: OVCAR-5 ovarian
[20] = system: A498 renal
[21] = system: SK-OV-3 ovarian
[22] = system: MDA-MB-435
[23] = system: HOP-92 NSCLC
[24] = system: SF-539 CNS
[25] = system: OVCAR-8 ovarian
[26] = system: HS 578T breast
[27] = system: HT29 colon
[28] = system: SK-MEL-2 melanoma
[29] = system: DU-145 prostate
[30] = system: MALME-3M melanoma
[31] = system: CAKI-1 renal
[32] = system: BT-549 breast
[33] = system: CCRF-CEM leukemia
[34] = system: HCC-2998 colon
[35] = system: EKVX NSCLC
[36] = system: OVCAR-4 ovarian
[37] = system: T-47D breast
[38] = system: NCI-H23 lung
[39] = system: A549 NSCLC
[40] = system: TK-10 renal
[41] = system: UO-31 renal
[42] = system: KM12 colon
[43] = system: NCI-H522 lung
[44] = system: NCI-H460 lung
[45] = system: SR leukemia
[46] = system: SF-295 CNS
[47] = system: PC-3 prostate
[48] = system: RXF 393 renal
[49] = system: M14 melanoma
[50] = system: HCT-15 colon
[51] = system: HL-60(TB) leukemia
[52] = system: U251 CNS
[53] = system: RPMI-8226 leukemia
[54] = system: SNB-19 CNS
[55] = system: UACC-257 melanoma
[56] = system: SF-268 CNS
[57] = system: MOLT-4 leukemia

## CN(C)CCOc1nc2ccccc2c2c1-c1ccc(Cl)cc1C2=O
[1]
  GI50: 324 nM
  TGI: 1390 nM
[2]
  GI50: 416 nM
  TGI: 1780 nM
[3]
  GI50: 1650 nM
  TGI: 3150 nM
[4]
  GI50: 735 nM
  TGI: 8650 nM
[5]
  GI50: 1210 nM
[6]
  GI50: 696 nM
  TGI: 4400 nM
[7]
  GI50: 340 nM
  TGI: 1530 nM
[8]
  GI50: 1360 nM
  TGI: 2670 nM
[9]
  GI50: 422 nM
  TGI: 1520 nM
[10]
  GI50: 889 nM
  TGI: 3260 nM
[11]
  GI50: 444 nM
  TGI: 1730 nM
[12]
  GI50: 419 nM
  TGI: 1720 nM
[13]
  GI50: 389 nM
  TGI: 2360 nM
[14]
  GI50: 1100 nM
  TGI: 3000 nM
[15]
  GI50: 622 nM
  TGI: 1850 nM
[16]
  GI50: 1380 nM
  TGI: 2930 nM
[17]
  GI50: 443 nM
  TGI: 1720 nM
[18]
  GI50: 1220 nM
  TGI: 2620 nM
[19]
  GI50: 1270 nM
[20]
  GI50: 1190 nM
  TGI: 2870 nM
[21]
  GI50: 1760 nM
  TGI: > 37000 nM
[22]
  GI50: 489 nM
  TGI: 1880 nM
[23]
  GI50: 748 nM
  TGI: 12300 nM
[24]
  GI50: 1070 nM
  TGI: 2590 nM
[25]
  GI50: 386 nM
  TGI: 2220 nM
[26]
  GI50: 728 nM
  TGI: 3590 nM
[27]
  GI50: 453 nM
  TGI: 1630 nM
[28]
  GI50: 2340 nM
  TGI: 4680 nM
[29]
  GI50: 444 nM
  TGI: 1350 nM
[30]
  GI50: 1070 nM
  TGI: 2430 nM
[31]
  GI50: 499 nM
  TGI: 5180 nM
[32]
  GI50: 2010 nM
  TGI: 4590 nM
[33]
  GI50: 363 nM
  TGI: 2460 nM
[34]
  GI50: 970 nM
  TGI: 2490 nM
[35]
  GI50: 2060 nM
  TGI: 6850 nM
[36]
  GI50: 927 nM
  TGI: 4040 nM
[37]
  GI50: 1530 nM
  TGI: 4550 nM
[38]
  GI50: 1140 nM
  TGI: 4040 nM
[39]
  GI50: 458 nM
  TGI: 5250 nM
[40]
  GI50: 1360 nM
  TGI: 3180 nM
[41]
  GI50: 222 nM
  TGI: 1270 nM
[42]
  GI50: 441 nM
  TGI: 1570 nM
[43]
  GI50: 573 nM
  TGI: 2090 nM
[44]
  GI50: 365 nM
  TGI: 1300 nM
[45]
  GI50: 305 nM
  TGI: 1030 nM
[46]
  GI50: 1530 nM
  TGI: > 100000 nM
[47]
  GI50: 1340 nM
  TGI: 7690 nM
[48]
  GI50: 1070 nM
  TGI: 2550 nM
[49]
  GI50: 1120 nM
  TGI: 2720 nM
[50]
  GI50: 464 nM
  TGI: 1920 nM
[51]
  GI50: 933 nM
  TGI: 3370 nM
[52]
  GI50: 380 nM
  TGI: 1590 nM
[53]
  GI50: 617 nM
  TGI: 2350 nM
[54]
  GI50: 460 nM
  TGI: 2140 nM
[55]
  GI50: 1250 nM
  TGI: 2970 nM
[56]
  GI50: 577 nM
  TGI: 2320 nM
[57]
  GI50: 302 nM
  TGI: 1510 nM

— PubChem BioAssay (NCI)
